What follows are molecules tested against T1, Human orexin receptor type 2 (Homo sapiens, UniProt O43614) (assay: Test 2: Evaluation of agonist activity for orexin receptor type 2 (aequorin luminescence, intracellular calcium mobilization in CHO cells)). Conditions: relative percentage of luminescence for the luminescence (100%) of Orexin A (100 pM); CHO cells transiently expressing human orexin receptor type 2 and apoaequorin; Orexin A Lot. 671009.
T1 construct: expressed in transfected cells; host or cells: CHO cells (transient expression)
T1 sequence (O43614 1-444): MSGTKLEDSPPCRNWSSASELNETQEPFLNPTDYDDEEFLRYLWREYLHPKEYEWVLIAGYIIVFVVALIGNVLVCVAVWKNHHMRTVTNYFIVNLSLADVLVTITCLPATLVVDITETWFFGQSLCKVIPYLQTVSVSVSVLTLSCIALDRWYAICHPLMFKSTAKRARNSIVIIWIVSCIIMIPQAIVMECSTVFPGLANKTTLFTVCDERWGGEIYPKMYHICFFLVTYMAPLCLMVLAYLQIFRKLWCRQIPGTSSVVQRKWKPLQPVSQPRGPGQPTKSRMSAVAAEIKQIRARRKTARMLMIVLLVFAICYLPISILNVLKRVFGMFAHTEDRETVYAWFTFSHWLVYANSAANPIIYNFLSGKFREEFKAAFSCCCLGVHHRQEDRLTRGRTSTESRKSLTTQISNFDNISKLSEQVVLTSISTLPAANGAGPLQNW
Type: cell-based
Procedure, shortened: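 CHO cells transiently co-expressing the receptor and apoaequorin, incubated 16–22 h, were loaded 2 h at room temperature with 1 μM coelenterazine hcp (final). Compounds in Hanks/20 mM HEPES/0.1% BSA (0.1% DMSO final) were added and the calcium luminescence was read and expressed as % of Orexin A (100 pM).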
CN(CC1(F)CC1)C1CCN([C@H]2CCCC(F)(F)[C@@H]2NC(=O)N2CCC(C)(c3noc([C@@H]4C[C@@H]4F)n3)CC2)CC1 [Example 136, N-[(1R,6S)-2,2-difluoro-6-(4-{[(1-fluorocyclopropyl)methyl](methyl)amino}piperidin-1-yl)cyclohexyl]-4-{5-[(1S,2S)-2-fluorocyclopropyl]-1,2,4-oxadiazol-3-yl}-4-methylpiperidine-1-carboxamide] was tested, and the “agonist activity (%)” value was 346%. CC(C)N(C)C1CCN([C@H]2CCCC(F)(F)[C@@H]2NC(=O)N2CCC(C)(c3noc([C@@H]4C[C@@H]4F)n3)CC2)CC1 [Example 114, N-[(1R,6S)-2,2-difluoro-6-{4-[methyl(propan-2-yl)amino]piperidin-1-yl}cyclohexyl]-4-{5-[(1S,2S)-2-fluorocyclopropyl]-1,2,4-oxadiazol-3-yl}-4-methylpiperidine-1-carboxamide] was tested, and the “agonist activity (%)” value was 438%.

What follows are molecules tested against T1, Human orexin receptor type 2 (assay: Test 1: Evaluation of agonist activity for orexin receptor type 2 (aequorin luminescence, intracellular calcium mobilization in CHO cells)). Conditions: relative percentage of luminescence for the luminescence (100%) of Orexin A (100 pM); CHO cells transiently expressing human orexin receptor type 2 and apoaequorin; Orexin A Lot. 641114.
Type: cell-based
Procedure: Test 1: Evaluation of Agonist Activity for Orexin Receptor Type 2
Human orexin receptor type 2 and apoaequorin were transiently expressed in CHO cells, and the agonist activity was evaluated based on intracellular calcium mobilization with ligand stimulation. The CHO cells transiently-expressed human orexin receptor type 2 and apoaequorin were seeded on a 384-well plate by 2,000 cells/well, and then incubated for 16-22 hours. After the plate was returned to room temperature, Coelenterazine hcp (final concentration: 1 μM) was added to the plate, and the plate was allowed to stand at room temperature for 2 hours. And then, Orexin A (PEPTIDE INSTITUTE, INC., Lot. 641114) or each test compound was added to the plate, and the luminescence of the cells was measured with FDSS7000 (Hamamatsu Photonics K.K.), wherein Orexin A and each test compound were dissolved in DMSO (final concentration: 0.1%), and diluted with a buffer (Hanks, 20 mM HEPES, 0.1% BSA). The agonist activity of each test compound for orexin receptor type 2 was calculated as relative percentage of luminescence for the luminescence (100%) of Orexin A (100 pM).
CC(C)N1CCN([C@H]2CCCC(F)(F)[C@@H]2NC(=O)N2CCC(C)(c3nc4ccccc4o3)CC2)CC1 (racemic) [Example 21, rac-4-(1,3-benzoxazol-2-yl)-N-{(1R,6S)-2,2-difluoro-6-[4-(propan-2-yl)piperazin-1-yl]cyclohexyl}-4-methylpiperidine-1-carboxamide] was tested, and the “agonist activity (%)” value was 153%. Cc1ccc(C2(C)CCN(C(=O)N[C@@H]3[C@@H](O[C@@H]4CCN(C(C)C)C4)CCCC3(F)F)CC2)cc1 [Example 67, N-[(1R,6S)-2,2-difluoro-6-{[(3R)-1-(propan-2-yl)pyrrolidin-3-yl]oxy}cyclohexyl]-4-methyl-4-(4-methylphenyl)piperidine-1-carboxamide] was tested, and the “agonist activity (%)” value was 175%. CC(C)N1CCN([C@H]2CCCC(F)(F)[C@@H]2NC(=O)N2CCC(C)(c3noc(C4CC4)n3)CC2)CC1 [Example 24, 4-(5-cyclopropyl-1,2,4-oxadiazol-3-yl)-N-{(1R,6S)-2,2-difluoro-6-[4-(propan-2-yl)piperazin-1-yl]cyclohexyl}-4-methylpiperidine-1-carboxamide] was tested, and the “agonist activity (%)” value was 210%. In the case of CC(C)N1CC[C@H](O[C@H]2CCCC(F)(F)[C@@H]2NC(=O)N2CCC(C)(c3noc([C@@H]4C[C@@H]4C)n3)CC2)C1 [Example 74, N-[(1R,6S)-2,2-difluoro-6-{[(3S)-1-(propan-2-yl)pyrrolidin-3-yl]oxy}cyclohexyl]-4-methyl-4-(5-[(1R,2S)-2-methylcyclopropyl]-1,2,4-oxadiazol-3-yl)piperidine-1-carboxamide], the “agonist activity (%)” value was 174%. With CC(C)N1CC=C(C2=CCCCC2NC(=O)N2CCC(C)(c3noc(C4CC4)n3)CC2)CC1 (racemic) [Example 18, rac-4-(5-Cyclopropyl-1,2,4-oxadiazol-3-yl)-4-methyl-N-{2-[1-(propan-2-yl)-1,2,3,6-tetrahydropyridin-4-yl]cyclohex-2-en-1-yl}piperidine-1-carboxamide] the “agonist activity (%)” value was 73%. With COc1nc(C2(C)CCN(C(=O)N[C@@H]3[C@@H](N4CCN(C(C)C)CC4)CCCC3(F)F)CC2)ns1 (racemic) [Example 45, rac-N-{(1R,6S)-2,2-difluoro-6-[4-(propan-2-yl)piperazin-1-yl]cyclohexyl}-4-(5-methoxy-1,2,4-thiadiazol-3-yl)-4-methylpiperidine-1-carboxamide] the “agonist activity (%)” value was 150%. In the case of CC(C)N1CCN([C@H]2CCCC(F)(F)[C@@H]2NC(=O)N2CCC(C)(c3nnc(C4CC4)s3)CC2)CC1 [Example 44, 4-(5-cyclopropyl-1,3,4-thiadiazol-2-yl)-N-{(1R,6S)-2,2-difluoro-6-[4-(propan-2-yl)piperazin-1-yl]cyclohexyl}-4-methylpiperidine-1-carboxamide], the “agonist activity (%)” value was 148%. CC(C)N1CCN([C@H]2CCCC(F)(F)[C@@H]2NC(=O)N2CCC(C3CCCCC3)CC2)CC1 (racemic) [Example 35, rac-4-cyclohexyl-N-{(1R,6S)-2,2-difluoro-6-[4-(propan-2-yl)piperazin-1-yl]cyclohexyl}piperidine-1-carboxamide] was tested, and the “agonist activity (%)” value was 165%. In the case of CC(C)N1CCN([C@H]2CCCC(F)(F)[C@@H]2NC(=O)N2CCC(C)(c3noc([C@H]4C[C@H]4C)n3)CC2)CC1 [Example 68, N-{(1R,6S)-2,2-difluoro-6-[4-(propan-2-yl)piperazin-1-yl]cyclohexyl}-4-methyl-4-{5-[(1S,2R)-2-methylcyclopropyl]-1,2,4-oxadiazol-3-yl}piperidine-1-carboxamide], the “agonist activity (%)” value was 156%. CC(C)N1CCN([C@H]2CCCC(F)(F)[C@@H]2NC(=O)N2CCC(C)(c3nsc(OC4CC4)n3)CC2)CC1 [Example 57, 4-[5-(cyclopropyloxy)-1,2,4-thiadiazol-3-yl]-N-{(1R,6S)-2,2-difluoro-6-[4-(propan-2-yl)piperazin-1-yl]cyclohexyl}-4-methylpiperidine-1-carboxamide] was tested, and the “agonist activity (%)” value was 155%. In the case of Cc1ccc(C2(C)CCN(C(=O)N[C@@H]3[C@@H](N4CC5CC(C4)N5C(C)C)CCCC3(F)F)CC2)cc1 [Example 61, N-{(1R,6S)-2,2-difluoro-6-[6-(propan-2-yl)-3,6-diazabicyclo[3.1.1]heptan-3-yl]cyclohexyl}-4-methyl-4-(4-methylphenyl)piperidine-1-carboxamide], the “agonist activity (%)” value was 169%. With CC(C)c1ccc(C2=CCCCC2NC(=O)N2CCC(C)(c3noc(C4CC4)n3)CC2)cn1 (racemic) [Example 16, rac-4-(5-cyclopropyl-1,2,4-oxadiazol-3-yl)-4-methyl-N-{2-[6-(propan-2-yl)pyridin-3-yl]cyclohex-2-en-1-yl}piperidine-1-carboxamide] the “agonist activity (%)” value was 39%. In the case of Cc1ccc(C2CCN(C(=O)N[C@@H]3[C@@H](N4CCN(C(C)C)CC4)CCCC3(F)F)CC2)cc1 (racemic) [Example 8, rac-N-{(1R,6S)-2,2-difluoro-6-[4-(propan-2-yl)piperazin-1-yl]cyclohexyl}-4-(4-methylphenyl)piperidine-1-carboxamide], the “agonist activity (%)” value was 207%. With CC(C)N1CCN([C@H]2CCCC(F)(F)[C@@H]2OC(=O)N2CCC(C)(c3ncn(C4CC4)n3)CC2)CC1 (racemic) [Example 13, rac-(1R,6S)-2,2-difluoro-6-[4-(propan-2-yl)piperazin-1-yl]cyclohexyl 4-(1-cyclopropyl-1H-1,2,4-triazol-3-yl)-4-methylpiperidine-1-carboxylate] the “agonist activity (%)” value was 56%. With CC(C)N1CCN([C@H]2CCCC(F)(F)[C@@H]2NC(=O)N2CCC(C)(c3noc(CC(F)(F)F)n3)CC2)CC1 [Example 70, N-{(1R,6S)-2,2-difluoro-6-[4-(propan-2-yl)piperazin-1-yl]cyclohexyl}-4-methyl-4-[5-(2,2,2-trifluoroethyl)-1,2,4-oxadiazol-3-yl]piperidine-1-carboxamide] the “agonist activity (%)” value was 141%. In the case of Cc1ccc(C2(C)CCN(C(=O)N[C@@H]3[C@@H](N4CCN(C(C)C)CC4)CCCC3(F)F)CC2)c(C#N)c1 [Example 60, 4-(2-cyano-4-methylphenyl)-N-{(1R,6S)-2,2-difluoro-6-[4-(propan-2-yl)piperazin-1-yl]cyclohexyl}-4-methylpiperidine-1-carboxamide], the “agonist activity (%)” value was 151%. In the case of CC(C)N1CCN([C@H]2CCCC(F)(F)[C@@H]2NC(=O)N2CCC(O)(c3ccccn3)CC2)CC1 (racemic) [Example 37, rac-N-{(1R,6S)-2,2-difluoro-6-[4-(propan-2-yl)piperazin-1-yl]cyclohexyl}-4-hydroxy-4-(pyridin-2-yl)piperidine-1-carboxamide], the “agonist activity (%)” value was 45%. For COc1ccc(C2CCN(C(=O)N[C@@H]3[C@@H](N4CCN(C(C)C)CC4)CCCC3(F)F)CC2)nc1 (racemic) [Example 53, rac-N-{(1R,6S)-2,2-difluoro-6-[4-(propan-2-yl)piperazin-1-yl]cyclohexyl}-4-(5-methoxypyridin-2-yl)piperidine-1-carboxamide], the “agonist activity (%)” value was 143%. For Cc1ccc(C2CC=C(C(=O)N[C@@H]3[C@@H](N4CCN(C(C)C)CC4)CCCC3(F)F)CC2)cc1 (mixture of isomers) [Example 77, rac-N-{(1R,6S)-2,2-Difluoro-6-[4-(propan-2-yl)piperazin-1-yl]cyclohexyl}-4′-methyl-1,2,3,6-tetrahydro[1,1′-biphenyl]-4-carboxamide], the “agonist activity (%)” value was 158%.
